According to US4000280A, “Pharmaceutical compositions containing an amphetamine derivative for the alleviation of anxiety or treatment of depression” (Astra Lakemedel Aktiebolag, priority 1975, dated 1976):

How the values were obtained:
mice = test: Motor activity in mice (exploratory activity in locomotion cage); assay type: in vivo; parameters: key to Motor Activity: +: increase; -: decrease; 0: no effect; details: for Motor Activity: recorded for 10 minutes 1 hour after administration, compared to control groups, i.p.; for central stimulation (in words): motor activity in mice
Method: The lack of euphoric effects, that is lack of central stimulatory activity, is tested by measuring the motor activity in mice after administration of the test substance.
The exploratory activity of mice was recorded in a locomotion cage in which the movements were counted each time the animals cross-circuits an electrical current in the bottom plate. The activity was recorded for 10 minutes 1 hour after the administration of the drug. The animals were tested individually. Groups of six mice were used and the mice were only used once. The activity was expressed in percent of the activity of control groups ran simultaneously. The compounds were administered in at least four doses. The increase (+) or decrease (-) of the activity compared to control groups was determined from log dose response curves.

5-HTP response = 5-HTP response potentiation test (potentiation of behavioral syndrome after dl-5-HTP); assay type: in vivo, mice; details: Mus musculus, ip; dl-5-HTP 90 mg/kg i.v.; at least five doses; probit analysis (Litchfield and Wilcoxon)
Description: It is not possible by experimental means to induce depressions in laboratory animals. In order to evaluate a possible anti depressive effect on new substances biochemical-pharmacological test methods must be resorted to. One such method, which seems to give a good indication of the potential anti depressive effects of the test substances, is described in Europ. J. Pharmacol. 17, 107, 1972. This method involves the measurement of the potentiation of the syndromes produced by 5-hydroxytryptophan (5-HTP) in a laboratory animal.
Inhibition of the uptake of 5-HT potentiates the effects of administered 5-hydroxytryptophan (5-HTP) probably by increasing the amount of 5-HT at the receptor. Three mice are given the test drugs 1 hour (or 4, 24 hours) before dl-5-HTP, 90 mg/kg i.v. 5-HTP alone gives only a weak behavioral syndrome but in pretreated mice there is seen a characteristic behavioral syndrome, which comes within 5 minutes: tremor, lordosis, abduction of the hind-legs, head-twitches.
The absence or presence of respective syndrome is scored in groups of 10 mice. The compound was administered in at least five doses and the quantal responses were analysed by probit analysis and ED50 determined according to the method of Litchfield and Wilcoxon.

isolated mice = test: Aggressive behavior in isolated male mice (antiaggressive activity); assay type: in vivo; details: Mus musculus, ip, 5 min; i.p.; dose which reduces the aggressiveness score by 50%; 5 min test; read-out: Antiaggressive behaviour in mice ED50
Method: Potential anxiolytic activity is tested by measuring the antiaggressivity in isolated mice after administration of the test substance. In this test not amphetamine but Valium -- a well-known anxiolytic substance -- is used as a reference.
Male mice kept isolated for 3 weeks or longer develop an aggressive behavior when caged together. The method used follows that of Valzelli et al. (Europ. J. Pharmacol. 2, 144, 1967), with the exception that two mice were tested on each other. The aggressiveness was scored during a 5 min test according to the following schedule:
0 the animals show no interest in each other except occasional nosing
25 frequent vigorous nosing and tail rattling, the animals assume a fighting position and occasionally attack each other -- no more than 3-4 times in the 5 min period
50 tail rattling, powerful attacks -- no more than 10 times in the test period
75 the animals follow their partners, attacking and biting for most of the time
100 attacks over the entire period.
The animals were used for several experiments but with intervals of at least 1 week. Groups of 10 mice were used.
ED50 is the dose which reduces the aggressiveness score by 50%.

Structure (SMILES) | Motor Activity (mice) | further results
CC(N)Cc1ccc(N(C)C)cc1Cl.Cl.Cl (stereo not drawn) [H 2-Cl CH3 CH3 H CH3, 2-Chloro-4dimethylamino-α-methylphenethylamine dihydrochloride] | - | 
CN(C)c1ccc(CC(C)(C)N)cc1.Cl.Cl [H H CH3 CH3 CH3 CH3, 4-Dimethylamino-α, α-dimethylphenethylamine dihydrochloride] | 0 | 
Cc1cc(N(C)C)ccc1CC(C)N.Cl.Cl (stereo not drawn) [H 2-CH 3 CH3 CH3 H CH3, 2-Methyl-4-dimethylamino-α-methylphenethylamine dihydrochloride] | - | 
CCN(CC)c1ccc(CC(C)N)cc1 (stereo not shown) [H H C2 H5 C2 H5 H CH3] | - | 
CC(N)Cc1ccc(Cl)cc1 (stereo not shown) [P-Chloroamphetamine, reference compound] |  | central stimulation (in words) (mice): pronounced
CCC(N)Cc1ccc(N(C)C)cc1Cl (stereo not shown) [H 2-Cl CH3 CH3 H C2 H5] | 0 | 
CC(N)Cc1c(Cl)cc(N(C)C)cc1Cl.Cl.Cl (stereo not drawn) [2-Cl 6-Cl CH3 CH3 H CH3, 2,6-Dichloro-4-dimethylamino-α-methylphenethylamine dihydrochloride] | - | 
CC(N)Cc1ccccc1 (stereo not shown) [Amphetamine] |  | central stimulation (in words) (mice): pronounced
CC(N)Cc1ccc2c(c1)CCCN2C.Cl.Cl (stereo not shown) [H H CH3 (CH2)3 H CH3, 6-(2-Aminopropyl)-1-methyl-1,2,3,4-tetrahydroquinoline dihydrochloride] |  | ED50 (5-HTP response): 1.5 mg/kg; ED50 (isolated mice): > 5 mg/kg
